# According to PubChem BioAssay (NCI):
#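 Here, GI50 denotes the concentration required for 50% inhibition of growth. TGI marks complete inhibition of growth.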
# Tests used:
# Assay in all cases: DTP human tumour cell line panel, 384-well format
# 786-0 renal = test system: 786-0 renal
# HT29 colon = test system: HT29 colon
# MDA-MB-231 breast = test system: MDA-MB-231 breast
# CAKI-1 renal = test system: CAKI-1 renal
# SK-OV-3 ovarian = test system: SK-OV-3 ovarian
# IGROV1 ovarian = test system: IGROV1 ovarian
# NCI/ADR-RES ovarian = test system: NCI/ADR-RES ovarian
# MDA-MB-468 breast = test system: MDA-MB-468 breast
# A498 renal = test system: A498 renal
# OVCAR-4 ovarian = test system: OVCAR-4 ovarian
# SNB-19 CNS = test system: SNB-19 CNS
# HCT-15 colon = test system: HCT-15 colon
# HCC-2998 colon = test system: HCC-2998 colon
# SF-539 CNS = test system: SF-539 CNS
# NCI-H460 NSCLC = test system: NCI-H460 NSCLC
# UACC-62 melanoma = test system: UACC-62 melanoma
# ACHN renal = test system: ACHN renal
# NCI-H226 lung = test system: NCI-H226 lung
# A549 NSCLC = test system: A549 NSCLC
# U251 glioblastoma = test system: U251 glioblastoma
# HL-60(TB) leukemia = test system: HL-60(TB) leukemia
# UO-31 renal = test system: UO-31 renal
# SR leukemia = test system: SR leukemia
# SF-295 CNS = test system: SF-295 CNS
# SK-MEL-28 melanoma = test system: SK-MEL-28 melanoma
# EKVX NSCLC = test system: EKVX NSCLC
# T-47D breast = test system: T-47D breast
# SNB-75 CNS = test system: SNB-75 CNS
# COLO 205 colon = test system: COLO 205 colon
# BT-549 breast = test system: BT-549 breast
# KM12 colon = test system: KM12 colon
# DU-145 prostate = test system: DU-145 prostate
# HOP-62 NSCLC = test system: HOP-62 NSCLC
# OVCAR-8 ovarian = test system: OVCAR-8 ovarian
# HCT-116 colon = test system: HCT-116 colon
# RPMI-8226 leukemia = test system: RPMI-8226 leukemia
# NCI-H23 lung = test system: NCI-H23 lung
# NCI-H522 lung = test system: NCI-H522 lung
# SF-268 CNS = test system: SF-268 CNS
# MALME-3M melanoma = test system: MALME-3M melanoma
# HS 578T breast = test system: HS 578T breast
# MDA-MB-435 melanoma = test system: MDA-MB-435 melanoma
# RXF 393 renal = test system: RXF 393 renal
# TK-10 renal = test system: TK-10 renal
# MOLT-4 leukemia = test system: MOLT-4 leukemia
# SN12C renal = test system: SN12C renal
# SK-MEL-5 melanoma = test system: SK-MEL-5 melanoma
# PC-3 prostate = test system: PC-3 prostate
# M14 melanoma = test system: M14 melanoma
# MCF7 breast = test system: MCF7 breast
# UACC-257 melanoma = test system: UACC-257 melanoma
# HOP-92 NSCLC = test system: HOP-92 NSCLC
# OVCAR-5 ovarian = test system: OVCAR-5 ovarian
# LOX IMVI melanoma = test system: LOX IMVI melanoma
# NCI-H322M lung = test system: NCI-H322M lung
# OVCAR-3 ovarian = test system: OVCAR-3 ovarian
smiles,measurement,setting,value
COc1cc2c(Nc3ccc(Br)cc3F)ncnc2cc1OCC1CCN(C)CC1,GI50,786-0 renal,1370 nM
same,TGI,786-0 renal,2870 nM
same,GI50,HT29 colon,1780 nM
same,TGI,HT29 colon,3.61 µM
same,GI50,MDA-MB-231 breast,1870 nM
same,TGI,MDA-MB-231 breast,4.3 µM
same,GI50,CAKI-1 renal,1230 nM
same,TGI,CAKI-1 renal,2550 nM
same,GI50,SK-OV-3 ovarian,1930 nM
same,TGI,SK-OV-3 ovarian,6.31 µM
same,GI50,IGROV1 ovarian,262 nM
same,TGI,IGROV1 ovarian,1040 nM
same,GI50,NCI/ADR-RES ovarian,2240 nM
same,TGI,NCI/ADR-RES ovarian,6.43 µM
same,GI50,MDA-MB-468 breast,551 nM
same,TGI,MDA-MB-468 breast,1920 nM
same,GI50,A498 renal,1440 nM
same,TGI,A498 renal,3.34 µM
same,GI50,OVCAR-4 ovarian,2300 nM
same,TGI,OVCAR-4 ovarian,10.2 µM
same,GI50,SNB-19 CNS,10.6 µM
same,TGI,SNB-19 CNS,> 100 µM
same,GI50,HCT-15 colon,1980 nM
same,TGI,HCT-15 colon,5.36 µM
same,GI50,HCC-2998 colon,2390 nM
same,TGI,HCC-2998 colon,5.59 µM
same,GI50,SF-539 CNS,2640 nM
same,TGI,SF-539 CNS,8.64 µM
same,GI50,NCI-H460 NSCLC,4.66 µM
same,TGI,NCI-H460 NSCLC,16 µM
same,GI50,UACC-62 melanoma,1830 nM
same,TGI,UACC-62 melanoma,3.37 µM
same,GI50,ACHN renal,553 nM
same,TGI,ACHN renal,3.91 µM
same,GI50,NCI-H226 lung,1300 nM
same,TGI,NCI-H226 lung,5.47 µM
same,GI50,A549 NSCLC,2070 nM
same,TGI,A549 NSCLC,11.2 µM
same,GI50,U251 glioblastoma,4.46 µM
same,TGI,U251 glioblastoma,17.1 µM
same,GI50,HL-60(TB) leukemia,2090 nM
same,TGI,HL-60(TB) leukemia,3.53 µM
same,GI50,UO-31 renal,1160 nM
same,TGI,UO-31 renal,2460 nM
same,GI50,SR leukemia,3.54 µM
same,TGI,SR leukemia,5.01 µM
same,GI50,SF-295 CNS,66.6 µM
same,TGI,SF-295 CNS,> 100 µM
same,GI50,SK-MEL-28 melanoma,1710 nM
same,TGI,SK-MEL-28 melanoma,3.11 µM
same,GI50,EKVX NSCLC,943 nM
same,TGI,EKVX NSCLC,8.63 µM
same,GI50,T-47D breast,1330 nM
same,TGI,T-47D breast,8.79 µM
same,GI50,SNB-75 CNS,1570 nM
same,TGI,SNB-75 CNS,3.61 µM
same,GI50,COLO 205 colon,2350 nM
same,TGI,COLO 205 colon,6.01 µM
same,GI50,BT-549 breast,2240 nM
same,TGI,BT-549 breast,5.06 µM
same,GI50,KM12 colon,5.9 µM
same,TGI,KM12 colon,17.4 µM
same,GI50,DU-145 prostate,2220 nM
same,TGI,DU-145 prostate,12.4 µM
same,GI50,HOP-62 NSCLC,2770 nM
same,TGI,HOP-62 NSCLC,10.4 µM
same,GI50,OVCAR-8 ovarian,2540 nM
same,TGI,OVCAR-8 ovarian,7.23 µM
same,GI50,HCT-116 colon,3.1 µM
same,TGI,HCT-116 colon,10.7 µM
same,GI50,RPMI-8226 leukemia,2840 nM
same,TGI,RPMI-8226 leukemia,6.12 µM
same,GI50,NCI-H23 lung,3.38 µM
same,TGI,NCI-H23 lung,15.5 µM
same,GI50,NCI-H522 lung,616 nM
same,TGI,NCI-H522 lung,2530 nM
same,GI50,SF-268 CNS,2460 nM
same,TGI,SF-268 CNS,7.05 µM
same,GI50,MALME-3M melanoma,1770 nM
same,TGI,MALME-3M melanoma,3.16 µM
same,GI50,HS 578T breast,1520 nM
same,TGI,HS 578T breast,2920 nM
same,GI50,MDA-MB-435 melanoma,2590 nM
same,TGI,MDA-MB-435 melanoma,4.42 µM
same,GI50,RXF 393 renal,836 nM
same,TGI,RXF 393 renal,2480 nM
same,GI50,TK-10 renal,1980 nM
same,TGI,TK-10 renal,5.1 µM
same,GI50,MOLT-4 leukemia,1920 nM
same,TGI,MOLT-4 leukemia,5.65 µM
same,GI50,SN12C renal,2330 nM
same,TGI,SN12C renal,16.3 µM
same,GI50,SK-MEL-5 melanoma,1540 nM
same,TGI,SK-MEL-5 melanoma,3.02 µM
same,GI50,PC-3 prostate,3.46 µM
same,TGI,PC-3 prostate,18.4 µM
same,GI50,M14 melanoma,1980 nM
same,TGI,M14 melanoma,3.42 µM
same,GI50,MCF7 breast,2780 nM
same,TGI,MCF7 breast,11.1 µM
same,GI50,UACC-257 melanoma,1900 nM
same,TGI,UACC-257 melanoma,3.32 µM
same,GI50,HOP-92 NSCLC,1370 nM
same,TGI,HOP-92 NSCLC,2840 nM
same,GI50,OVCAR-5 ovarian,2190 nM
same,TGI,OVCAR-5 ovarian,11.5 µM
same,GI50,LOX IMVI melanoma,2040 nM
same,TGI,LOX IMVI melanoma,4.24 µM
same,GI50,NCI-H322M lung,298 nM
same,TGI,NCI-H322M lung,900 nM
same,GI50,OVCAR-3 ovarian,1050 nM
same,TGI,OVCAR-3 ovarian,4.52 µM
